Measurements: patent US20190248739A1 (NEWLINK GENETICS CORPORATION, priority 2015, published 2019)
Structures can show the parent of a compound that is named as a salt.

Assays:
[1] = pharmacokinetic testing of indoximod prodrugs in liquid formulation in rats; format: in vivo; details: oral solution, 50 mg/kg
[2] = pharmacokinetic testing of indoximod prodrugs in liquid formulation in mice; details: mice, oral, 50 mg/kg
Experimental: Blood samples (0.1-0.2 mL) were collected from the femoral artery port from rats or by retro-orbital bleeding from mice and plasma was immediately collected by centrifugation and stored on dry ice to avoid prodrug hydrolysis after plasma collection. […] The pharmacokinetic parameters reflect the average of individual parameter values obtained from each individual rat (n) or one common parameter from a single pharmacokinetic curve derived from blood samples obtained from a group of mice (n).

[3] = solubility of indoximod and its salts in water, buffers and SGF; format: physicochemical; details: 25° C.
[4] = pharmacokinetic testing of indoximod salts in capsule formulation in rats; format: in vivo; details: capsules
Experimental: Three dose levels were investigated: 37, 185 or 500 μmol/kg.
Capsules were manually filled and the composition uniformity of a representative sample of capsules from each batch was verified by weight and by LC-MS/MS to determine the average indoximod content.
Rats were fasted 16 h prior to dosing to eliminate any confounding food effects, and food was returned 2 h after dosing.

[5] = hygroscopicity and stability of indoximod and its salts; format: physicochemical; details: Table 2, in % (unit assumed)
[6] = crossover pharmacokinetic study of indoximod free base, salts and SDD in cynomolgus monkeys; format: in vivo; details: for % Increase over indoximod FB (AUC) / % Increase over indoximod FB (Cmax) / AUC(0 −> 48 h) / Cmax: oral
Experimental: The SDD suspension formulations were prepared in 0.5% methylcellulose (Methocel).

[7] = 37 μmol/kg, listed as Indoximod phosphate, phosphate
[8] = 185 μmol/kg, listed as Indoximod phosphate, phosphate
[9] = 500 μmol/kg, listed as Indoximod phosphate, phosphate
[10] = 37 μmol/kg, listed as Indoximod hydrochloride salt
[11] = 185 μmol/kg, listed as Indoximod hydrochloride salt
[12] = 500 μmol/kg, listed as Indoximod hydrochloride salt
[13] = both dose levels (275 and 825 μmol/kg)

CCOC(=O)[C@H](N)Cc1cn(C)c2ccccc12 [NLG-1283, ethyl 1-methyl-D-tryptophanate hydrochloride]
change in indoximod AUC versus indoximod [1]: increase | change in indoximod Cmax versus indoximod [1]: increase | change in indoximod AUC versus indoximod [2]: decrease | change in indoximod Cmax versus indoximod [2]: decrease

CC(C)OC(=O)[C@H](N)Cc1cn(C)c2ccccc12 [NLG-1284, isopropyl 1-methyl-D-tryptophanate hydrochloride]
change in indoximod AUC versus indoximod [1]: does not produce a significant increase | change in indoximod Cmax versus indoximod [1]: does not produce a significant increase | change in indoximod AUC versus indoximod [2]: significant increase | change in indoximod Cmax versus indoximod [2]: significant increase

Cn1cc(C[C@@H](N)C(=O)O)c2ccccc21 [indoximod H3PO4, (R)-1-carboxy-2-(1-methyl-1H-indol-3-yl)ethan-1-aminium dihydrogen phosphate]
Solubility (25° C., mg/mL) SGF ([3]; phosphate): 9.83 (NA) mg/mL | Solubility (25° C., mg/mL) Water ([3]; phosphate): 8.32 (NA) mg/mL | % Increase over indoximod Free Base (AUC) [4, 7]: significant increase | % Increase over indoximod Free Base (Cmax) [4, 7]: significant increase | % Increase over indoximod Free Base (AUC) ([4]; 37 μmol/kg, phosphate): 43% | % Increase over indoximod Free Base (Cmax) ([4]; 37 μmol/kg, phosphate): 40% | AUC(0 −> ∞) ([4]; 37 μmol/kg, phosphate): 558 ± 185 µM·h | Cmax ([4]; 37 μmol/kg, phosphate): 22.3 ± 9 µM | % Increase over indoximod Free Base (AUC) [4, 8]: significant increase | % Increase over indoximod Free Base (Cmax) [4, 8]: significant increase | % Increase over indoximod Free Base (AUC) ([4]; 185 μmol/kg, phosphate): 34% | % Increase over indoximod Free Base (Cmax) ([4]; 185 μmol/kg, phosphate): 96% | AUC(0 −> ∞) ([4]; 185 μmol/kg, phosphate): 1446 ± 645 µM·h | Cmax ([4]; 185 μmol/kg, phosphate): 40.9 ± 5 µM | % Increase over indoximod Free Base (AUC) [4, 9]: non-statistically significant decrease | % Increase over indoximod Free Base (Cmax) [4, 9]: significant decrease | % Increase over indoximod Free Base (AUC) ([4]; 500 μmol/kg, phosphate): −34% | % Increase over indoximod Free Base (Cmax) ([4]; 500 μmol/kg, phosphate): −51% | AUC(0 −> ∞) ([4]; 500 μmol/kg, phosphate): 1902 ± 1288 µM·h | Cmax ([4]; 500 μmol/kg, phosphate): 37.2 ± 10 µM | Hygroscopicity (0-80% RH) ([5]; phosphate): 1.7

Cn1cc(C[C@@H](N)C(=O)O)c2ccccc21 [indoximod HCl, (R)-1-carboxy-2-(1-methyl-1H-indol-3-yl)ethan-1-aminium chloride]
pH of the SGF solution (in brackets) ([3]; SGF solubility test, listed as HCl Salt): 1.03 | Solubility (25° C., mg/mL) SGF ([3]; listed as HCl Salt): > 200 mg/mL | Solubility (25° C., mg/mL) SGF ([3]; listed as hydrochloride salt): > 200 mg/mL | pH of the water solution (in brackets) ([3]; water solubility test, listed as HCl Salt): 1.06 | Solubility (25° C., mg/mL) Water ([3]; listed as HCl Salt): > 200 mg/mL | Solubility (25° C., mg/mL) Water ([3]; listed as hydrochloride salt): > 200 mg/mL | % Increase over indoximod Free Base (AUC) ([4]; 37 μmol/kg): −23% | % Increase over indoximod Free Base (Cmax) ([4]; 37 μmol/kg): −40% | AUC(0 −> ∞) ([4]; 37 μmol/kg): 299 ± 77 µM·h | Cmax ([4]; 37 μmol/kg): 9.5 ± 2 µM | % Increase over indoximod Free Base (AUC) [4, 10]: did not show a significant change | % Increase over indoximod Free Base (Cmax) [4, 10]: non-statistically significant decrease | % Increase over indoximod Free Base (AUC) ([4]; 185 μmol/kg): 38% | % Increase over indoximod Free Base (Cmax) ([4]; 185 μmol/kg): 84% | AUC(0 −> ∞) ([4]; 185 μmol/kg): 1493 ± 728 µM·h | Cmax ([4]; 185 μmol/kg): 38.4 ± 10 µM | % Increase over indoximod Free Base (AUC) [4, 11]: significant increase | % Increase over indoximod Free Base (Cmax) [4, 11]: statistically significant increase | % Increase over indoximod Free Base (AUC) ([4]; 500 μmol/kg): −6% | % Increase over indoximod Free Base (Cmax) ([4]; 500 μmol/kg): −42% | AUC(0 −> ∞) ([4]; 500 μmol/kg): 2706 ± 847 µM·h | Cmax ([4]; 500 μmol/kg): 44.4 ± 8 µM | % Increase over indoximod Free Base (AUC) [4, 12]: did not show a significant change | % Increase over indoximod Free Base (Cmax) [4, 12]: statistically significant decrease | increase in Cmax compared to indoximod free base capsules [6, 13]: 31-65% | increase in exposure compared to indoximod free base capsules [6, 13]: 37-53% | % Increase over indoximod FB (AUC) ([6]; 275 μmol/kg): 53% | % Increase over indoximod FB (Cmax) ([6]; 275 μmol/kg): 65% | AUC(0 −> 48 h) ([6]; 275 μmol/kg): 101 ± 18 µM·h | Cmax ([6]; 275 μmol/kg): 21.3 ± 8.9 µM | % Increase over indoximod FB (AUC) ([6]; 825 μmol/kg): 37% | % Increase over indoximod FB (Cmax) ([6]; 825 μmol/kg): 31% | AUC(0 −> 48 h) ([6]; 825 μmol/kg): 173 ± 75 µM·h | Cmax ([6]; 825 μmol/kg): 33.4 ± 12 µM | Hygroscopicity (0-80% RH) ([5]; listed as HCl Salt): 0.017
